Measurements from patent publication US20110165232A1, “Use of Opioid Antagonists for the Preparation of a Medicament in the Treatment of Retinal Degenerative Diseases” (AK KIMYA ITHALAT-IHRACAT VE SANAYII ANONIM SIRKETI, priority 2008, published 2011).

How the values were obtained:
Met-enkephalin = conditions: animal research, Ref 7; cited from earlier work
[1] = system: age related macular degeneration; assay: Case reports: low dose naltrexone regimen in patients with age related macular degeneration; type: in vivo, human; conditions: elderly person with age related macular degeneration, 4.5 mg per day at bedtime
Description: An […] has had age related macular degeneration for the last 11 years of […] life, experiencing progressive blurring in the center of […] vision. The degeneration led to loss of central vision […] from many daily activities. It […] very difficult to lead an independent life.
An […] has had age related macular degeneration for the last 10 years […]. […] experienced a loss of central vision […] to differentiate the colors of the surrounding objects and letters in the newspapers. […] […] began to differentiate the colors of the objects shown to […]; […] started to differentiate the big printed letters in the newspapers.

human tumors = conditions: laboratory studies, low dose naltrexone methodology; cited from earlier work
beta-endorphins = conditions: normal volunteers, LDN at bedtime, in the following days; cited from earlier work

O=C1CC[C@@]2(O)[C@H]3Cc4ccc(O)c5c4[C@@]2(CCN3CC2CC2)[C@H]1O5 [naltrexone]
Met-enkephalin levels (Met-enkephalin): marked increase in Met-enkephalin levels
quality of vision [1]: the quality of their vision started to improve
time after initiation of therapy until vision began to improve [1]: Approximately 50 days
quality of vision ([1]; listed as low dose naltrexone): improvement in the quality of their vision
time after initiation of therapy until vision began to improve ([1]; listed as low dose naltrexone): 50 to 60 days
inhibition of human tumors (human tumors): inhibition of different human tumors
levels of beta-endorphins in blood (beta-endorphins): higher levels of beta-endorphins in their blood
